This assay has as its target T1, Recombinant human KIF18A (1-467 His-tagged) protein (Homo sapiens, UniProt Q8NI77).
T1 construct: Recombinant human KIF18A (1-467 His-tagged) protein; His; made in house
The assay is described as follows: KIF18A Enzyme Assay (microtubule-stimulated ATPase activity, ADP-Glo). Type of assay: biochemical. The following applies: KIF18A protein 30 nM, ATP 75 μM (at Km), 30 μg/mL pig microtubules, ADP-Glo luminescence. The text has this: For compounds in Table A, the following assay conditions were employed:
KIF18A Enzyme Assay: Microtubule-stimulated ATPase activity assay is used to measure KIF18A enzyme activity after treatment with compound. Compounds were 2-fold serially diluted in DMSO (Sigma Inc) over 22-point concentration range. Recombinant human KIF18A (1-467 His-tagged) protein was expressed using a baculovirus system and purified by affinity chromatography by Amgen Inc. Concentrations of KIF18A protein, microtubules (MT), and ATP in the reaction were optimized for standardized homogenous enzyme assay using ADP-Glom Kinase/ATPase Assay Kit (Promega Inc). The assay measures ADP formed from the ATPase reaction. […] Read luminescence using EnVision microplate reader with ultra-luminescence module (Perkin Elmer Inc). Concentration-response curve-fitting and IC50 determination was performed using Genedata Screener Software (Standard 15.0.1, Genedata Inc) with a four-parameter logistic regression fit model.

As usually defined, the IC50 is the point on the concentration scale where inhibition reaches its midpoint.

T1 sequence (Q8NI77 1-467): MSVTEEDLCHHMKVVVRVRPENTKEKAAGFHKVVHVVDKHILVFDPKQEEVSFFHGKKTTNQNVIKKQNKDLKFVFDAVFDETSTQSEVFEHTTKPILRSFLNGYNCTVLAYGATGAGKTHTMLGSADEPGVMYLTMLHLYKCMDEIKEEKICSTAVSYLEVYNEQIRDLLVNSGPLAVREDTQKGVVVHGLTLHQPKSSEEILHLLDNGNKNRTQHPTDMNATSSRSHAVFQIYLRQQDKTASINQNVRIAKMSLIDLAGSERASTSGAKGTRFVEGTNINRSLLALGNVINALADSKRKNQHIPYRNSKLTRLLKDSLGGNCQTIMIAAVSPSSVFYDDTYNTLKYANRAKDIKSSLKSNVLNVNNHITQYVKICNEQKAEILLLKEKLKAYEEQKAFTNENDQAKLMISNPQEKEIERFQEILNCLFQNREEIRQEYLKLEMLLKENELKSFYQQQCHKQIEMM
T1 sequence (P02550 whole entry partner): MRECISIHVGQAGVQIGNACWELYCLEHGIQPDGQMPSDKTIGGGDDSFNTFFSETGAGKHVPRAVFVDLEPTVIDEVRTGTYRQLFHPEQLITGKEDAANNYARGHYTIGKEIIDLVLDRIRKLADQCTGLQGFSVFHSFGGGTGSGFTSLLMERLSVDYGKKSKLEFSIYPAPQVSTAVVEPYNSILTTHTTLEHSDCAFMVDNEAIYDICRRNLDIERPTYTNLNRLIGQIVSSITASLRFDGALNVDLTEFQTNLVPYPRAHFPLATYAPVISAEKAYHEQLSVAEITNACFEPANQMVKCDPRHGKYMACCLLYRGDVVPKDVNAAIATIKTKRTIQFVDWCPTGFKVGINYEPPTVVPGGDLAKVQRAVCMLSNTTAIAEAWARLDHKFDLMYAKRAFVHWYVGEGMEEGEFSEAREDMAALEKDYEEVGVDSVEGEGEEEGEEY
T1 sequence (P02554 whole entry partner): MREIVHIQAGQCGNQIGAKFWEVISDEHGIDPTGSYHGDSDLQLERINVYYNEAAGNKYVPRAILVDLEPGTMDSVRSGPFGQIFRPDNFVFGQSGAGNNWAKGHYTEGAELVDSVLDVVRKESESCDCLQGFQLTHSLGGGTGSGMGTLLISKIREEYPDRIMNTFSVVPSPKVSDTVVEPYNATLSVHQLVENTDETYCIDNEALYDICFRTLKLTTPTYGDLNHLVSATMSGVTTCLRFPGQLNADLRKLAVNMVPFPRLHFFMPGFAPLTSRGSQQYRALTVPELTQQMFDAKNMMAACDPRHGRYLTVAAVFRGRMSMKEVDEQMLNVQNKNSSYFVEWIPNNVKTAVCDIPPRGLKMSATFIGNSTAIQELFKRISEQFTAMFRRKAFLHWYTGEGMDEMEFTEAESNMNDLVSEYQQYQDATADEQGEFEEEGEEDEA

Consider `CC(C)(C)NS(=O)(=O)c1cccc(NC(=O)c2ncc(NC(C)(C)CO)nc2-c2ccc(C(F)(F)F)cc2)c1` [Example 104-2, N-(3-(N-(tert-butyl)sulfamoyl)phenyl)-5-((1-hydroxy-2-methylpropan-2-yl)amino)-3-(4-(trifluoromethyl)phenyl)pyrazine-2-carboxamide], for which the IC50 worked out at 168 nM.

For `CCc1ccc(-c2nc(NC(C)(C)CO)cnc2C(=O)Nc2cccc(S(=O)(=O)NC(C)(C)C)c2)cc1` [Example 104-3, N-(3-(N-(tert-butyl)sulfamoyl)phenyl)-3-(4-ethylphenyl)-5-((1-hydroxy-2-methylpropan-2-yl)amino)pyrazine-2-carboxamide], the IC50 was found to be 146 nM.

Turning to `CC(C)c1ccc(-c2nc(NC(C)(C)CO)cnc2C(=O)Nc2cccc(S(=O)(=O)NC(C)(C)C)c2)cc1` [Example 104-4, N-(3-(N-(tert-butyl)sulfamoyl)phenyl)-5-((1-hydroxy-2-methylpropan-2-yl)amino)-3-(4-isopropylphenyl)pyrazine-2-carboxamide], the concentration for half-maximal inhibition (IC50) stood at 141 nM.

Take `CC(C)(C)NS(=O)(=O)c1cccc(NC(=O)c2ncc(NC(C)(CO)CO)nc2N2CCC3(CC2)CC3)c1` [Example 106, N-(3-(N-(tert-butyl)sulfamoyl)phenyl)-5-((1,3-dihydroxy-2-methylpropan-2-yl)amino)-3-(6-azaspiro[2.5]octan-6-yl)pyrazine-2-carboxamide]: the IC50 amounted to 103 nM.

The values above are taken from patent publication US12435058B2, “KIF18A inhibitors” (AMGEN INC., priority 2019, dated 2025).
